Key:
Format in all cases: ADME
Design in all cases: dose 2 uM, timepoint 0, 1, 2, 4, 6, 8, 12, 18, 24 hours
Details in all cases: 2 µM
[1] = (§1) The drug is tested on the gut metagenome community of MV07 with ENA study accession number: PRJEB31790 and ENA sample accession number: SAMEA5537488 for biotransformation. The drug concentrations were measured over 9 timepoints collected between 0 and 24 hours of incubation by liquid-chromatography-coupled mass spectrometry (LC–MS)
[2] = as §1, with “MV10” for “MV07”, “SAMEA5537491” for “SAMEA5537488”
[3] = as §1, with “MV26” for “MV07”, “SAMEA5537507” for “SAMEA5537488”
[4] = as §1, with “MV14” for “MV07”, “SAMEA5537495” for “SAMEA5537488”
[5] = as §1, with “MV19” for “MV07”, “SAMEA5537500” for “SAMEA5537488”
[6] = as §1, with “MV17” for “MV07”, “SAMEA5537498” for “SAMEA5537488”
[7] = as §1, with “MV01” for “MV07”, “SAMEA5537482” for “SAMEA5537488”
[8] = as §1, with “MV21” for “MV07”, “SAMEA5537502” for “SAMEA5537488”
[9] = as §1, with “MV24” for “MV07”, “SAMEA5537505” for “SAMEA5537488”
[10] = as §1, with “MV23” for “MV07”, “SAMEA5537504” for “SAMEA5537488”
[11] = as §1, with “MV25” for “MV07”, “SAMEA5537506” for “SAMEA5537488”
[12] = as §1, with “MV15” for “MV07”, “SAMEA5537496” for “SAMEA5537488”
[13] = as §1, with “MV18” for “MV07”, “SAMEA5537499” for “SAMEA5537488”
[14] = as §1, with “MV08” for “MV07”, “SAMEA5537489” for “SAMEA5537488”
[15] = as §1, with “MV11” for “MV07”, “SAMEA5537492” for “SAMEA5537488”
[16] = as §1, with “MV04” for “MV07”, “SAMEA5537485” for “SAMEA5537488”

Bacterial Biotransformation [1]: Compound NOT metabolized | Bacterial Biotransformation [2]: Compound metabolized | Bacterial Biotransformation [3]: Compound NOT metabolized | Bacterial Biotransformation [4]: Compound NOT metabolized | Bacterial Biotransformation [5]: Compound NOT metabolized | Bacterial Biotransformation [6]: Compound NOT metabolized | Bacterial Biotransformation [7]: Compound NOT metabolized | Bacterial Biotransformation [8]: Compound NOT metabolized | Bacterial Biotransformation [9]: Compound metabolized | Bacterial Biotransformation [10]: Compound NOT metabolized | Bacterial Biotransformation [11]: Compound NOT metabolized | Bacterial Biotransformation [12]: Compound NOT metabolized | Bacterial Biotransformation [13]: Compound NOT metabolized | Bacterial Biotransformation [14]: Compound NOT metabolized | Bacterial Biotransformation [15]: Compound NOT metabolized | Bacterial Biotransformation [16]: Compound NOT metabolized
Structure (SMILES): C[C@@H]1C[C@H]2[C@@H]3CCC4=CC(=O)C=C[C@]4(C)[C@@]3(F)[C@@H](O)C[C@]2(C)[C@@]1(O)C(=O)CO [DEXAMETHASONE]

Source: ChEMBL document CHEMBL5303573, “Mapping human microbiome drug metabolism by gut bacteria and their genes” (Nature, 2019)
